Test results published in PubChem BioAssay (NCI).
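A five-concentration, 48-hour dose response in 96-well plates underlies each endpoint, interpolated linearly between surrounding concentrations. GI50: concentration for 50% inhibition of growth. TGI: concentration producing complete growth inhibition.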

Columns and labels:
Assay in all cases: growth of human tumour cells (NCI), 48 h
[1] = system: 786-0 renal
[2] = system: A549 NSCLC
[3] = system: ACHN renal
[4] = system: BT-549 breast
[5] = system: CAKI-1 renal
[6] = system: CCRF-CEM leukemia
[7] = system: COLO 205 colon
[8] = system: DU-145 prostate
[9] = system: EKVX NSCLC
[10] = system: HCC-2998 colon
[11] = system: HCT-116 colon
[12] = system: HCT-15 colon
[13] = system: HL-60(TB) leukemia
[14] = system: HOP-62 NSCLC
[15] = system: HOP-92 NSCLC
[16] = system: HS 578T breast
[17] = system: HT29 colon
[18] = system: IGROV1 ovarian
[19] = system: K-562 leukemia
[20] = system: KM12 colon
[21] = system: M14 melanoma
[22] = system: MALME-3M melanoma
[23] = system: MCF7 breast
[24] = system: MDA-MB-231 breast
[25] = system: MDA-MB-435
[26] = system: MOLT-4 leukemia
[27] = system: NCI-H226 lung
[28] = system: NCI-H23 lung

Cc1csc(Nc2nc(-c3cccc(Cl)c3)nc(C(Cl)(Cl)Cl)n2)n1
GI50 [1]: 11 µM | TGI [1]: > 33.3 µM | GI50 [2]: 1.06 µM | TGI [2]: 5.27 µM | GI50 [3]: 0.888 µM | TGI [3]: 3.46 µM | GI50 [4]: > 33.3 µM | TGI [4]: > 33.3 µM | GI50 [5]: 3.07 µM | TGI [5]: > 33.3 µM | GI50 [6]: 21.7 µM | TGI [6]: > 33.3 µM | GI50 [7]: 1.04 µM | TGI [7]: 5.43 µM | GI50 [8]: 0.713 µM | TGI [8]: 2.01 µM | GI50 [9]: 1.25 µM | TGI [9]: 6.89 µM | GI50 [10]: 1.22 µM | TGI [10]: 4.71 µM | GI50 [11]: 2.29 µM | TGI [11]: > 33.3 µM | GI50 [12]: 4.46 µM | TGI [12]: > 33.3 µM | GI50 [13]: 0.994 µM | TGI [13]: 3.81 µM | GI50 [14]: 1.27 µM | TGI [14]: 7.99 µM | GI50 [15]: 0.801 µM | TGI [15]: 3.21 µM | GI50 [16]: 1.79 µM | TGI [16]: 13.2 µM | GI50 [17]: 1.04 µM | TGI [17]: 13.1 µM | GI50 [18]: 15.7 µM | TGI [18]: > 33.3 µM | GI50 [19]: 7.41 µM | TGI [19]: > 33.3 µM | GI50 [20]: 1.64 µM | TGI [20]: 6.21 µM | GI50 [21]: > 33.3 µM | TGI [21]: > 33.3 µM | GI50 [22]: > 33.3 µM | TGI [22]: > 33.3 µM | GI50 [23]: 1.46 µM | TGI [23]: > 33.3 µM | GI50 [24]: 2.17 µM | TGI [24]: > 33.3 µM | GI50 [25]: 7.83 µM | TGI [25]: > 33.3 µM | GI50 [26]: 14 µM | TGI [26]: > 33.3 µM | GI50 [27]: > 33.3 µM | TGI [27]: > 33.3 µM | GI50 [28]: 23.7 µM
